In WO2022059996A1, “Blood circulation micro in-vitro corpuscle-mediated cancer treatment composition” (SEOUL TECHNO HOLDINGS Inc, priority 2020, dated 2022):

How the values were obtained:
[1] = tested on: GR-H1993 cells; experiment: GR-H1993 xenograft mouse model; type: in vivo; conditions: gefitinib 25 mg/kg PO, KRCT-6j 20 mg/kg IP, daily for 28 days, male Athymic BALB/c-nu mice
[2] = tested on: LNCaP-SL cells; experiment: csEV-mediated LNCaP-SL transwell migration inhibition; type: cell-based, human; conditions: csEV as attractant
[3] = tested on: YAP; experiment: Immunocytochemical analysis of YAP expression and nuclear localization; type: cell-based; conditions: csEV incubation; KRCT-6j given on top of csEV
[4] = tested on: GR-H1993 (gefitinib-resistant-H1993) cells; experiment: csEV-mediated proliferation of GR-H1993 cells; type: cell-based; conditions: csEV treatment
[5] = tested on: YAP; experiment: csEV-induced nuclear localization of YAP in GR-H1993 cells; type: cell-based
[6] = tested on: HCT116 cells; experiment: Antiproliferative screening in HCT116 colon cancer cells; type: cell-based, human; conditions: medium containing csEV and compound; inhibitory in both HCT116 and LNCaP-SL
[7] = tested on: LNCaP-SL cells; experiment: Antiproliferative screening in metastatic LNCaP-SL prostate cancer cells; type: cell-based, human; conditions: medium containing csEV and compound; inhibitory in both HCT116 and LNCaP-SL
[8] = tested on: LNCaP-SL cells; experiment: LNCaP-SL proliferation with docetaxel in the presence or absence of EV; type: cell-based, human; conditions: 50 nM docetaxel; EV-containing normal 10% FBS versus 10% FBS without EVs

## COc1cc2ncnc(Nc3ccc(F)c(Cl)c3)c2cc1OCCCN1CCOCC1 [gefitinib]
[1]
  tumor growth, GR-H1993 xenograft: did not affect tumor growth

## Cn1cc(-c2cnc(Nc3cc(Cl)cc(Cl)c3)nc2NC2CCCCC2)cn1 [KRCT-6j, N 4 -Cyclohexyl-N 2-(3,5-dichlorophenyl)-5-(1-methyl-1 H -pyrazol-4-yl)pyrimidine-2,4-diamine]
[2]
  inhibition of csEV-promoted migration of LNCaP-SL cells: inhibited by KRCT-6j in a concentration-dependent manner
[3]
  YAP expression and nuclear localization: decreased again
[4]
  proliferation of GR-H1993 cells: inhibit only the proliferative effect of csEV-mediated GR-H1993
[5]
  csEV-induced nuclear localization of YAP: inhibited
[6]
  proliferation inhibitory response, HCT116: both cell inhibitory responses
[7]
  proliferation inhibitory response, LNCaP-SL: both cell inhibitory responses

## CC(=O)O[C@@]12CO[C@@H]1C[C@H](O)[C@@]1(C)C(=O)[C@H](O)C3=C(C)[C@@H](OC(=O)[C@H](O)[C@@H](NC(=O)OC(C)(C)C)c4ccccc4)C[C@@](O)([C@@H](OC(=O)c4ccccc4)[C@H]21)C3(C)C [docetaxel]
[8]
  resistance of LNCaP-SL cells to docetaxel: much more resistant to docetaxel
